System: Mycobacterium tuberculosis
Test: Antimicrobial activity against Mycobacterium bovis BCG after 3 days by broth microdilution method
Type: functional
Details: variant bovis BCG, 72 h

| SMILES | MIC [µg/mL] |
| --- | --- |
| C[C@@H]1C[C@@H](O)[C@]2(O)O[C@@H]3C[C@@]4(C=O)[C@@H](CC[C@@H]5[C@@H]4CC[C@]4(C)[C@@H](C6=CC(=O)OC6)C[C@@H](O)[C@]54O)C[C@H]3O[C@@H]2C1 | > 80 |
| CO[C@@H]1C[C@@H](C)C[C@H]2O[C@@H]3C[C@@H]4CC[C@@H]5[C@H](CC[C@]6(C)[C@@H](C7=CC(=O)OC7)C[C@@H](O)[C@]56O)[C@@]4(C=O)C[C@H]3O[C@@]12O | > 80 |
| C[C@@H]1C[C@@H](O)[C@]2(O)O[C@@H]3C[C@@]4(C)[C@@H](CC[C@@H]5[C@@H]4CC[C@]4(C)[C@@H](C6=CC(=O)OC6)C[C@@H](O)[C@]54O)C[C@H]3O[C@@H]2C1 | > 80 |
| C[C@H]1C[C@H]2O[C@@H]3C[C@@H]4CC[C@@H]5[C@H](CC[C@]6(C)[C@@H](C7=CC(=O)OC7)CC[C@]56O)[C@@]4(C=O)C[C@H]3O[C@@]2(O)[C@H](O)[C@@H]1O | > 80 |
| C[C@H]1C[C@H]2O[C@@H]3C[C@@H]4CC[C@@H]5[C@H](CC[C@]6(C)[C@@H](C7=CC(=O)OC7)C[C@@H](O)[C@]56O)[C@@]4(C=O)C[C@H]3O[C@@]2(O)[C@@]2(C1)N=CCS2 | > 80 |
| C[C@]12[C@H](O)C[C@H]3[C@@H](CC[C@H]4C[C@H](O)CC[C@@]43CO)[C@@]1(O)CC[C@@H]2C1=CC(=O)OC1 | > 80 |
| C[C@]12[C@H](O)C[C@H]3[C@@H](CC[C@H]4C[C@H](O)CC[C@@]43C=O)[C@@]1(O)CC[C@@H]2C1=CC(=O)OC1 | > 80 |
| C[C@]12C[C@@H](O)[C@H](O)C[C@@H]1CC[C@@H]1[C@@H]2CC[C@]2(C)[C@@H](C3=CC(=O)OC3)C[C@@H](O)[C@]12O | > 80 |
| C[C@]12[C@H](O)C[C@H]3[C@@H](CC[C@H]4C[C@@H](O)CC[C@@]43CO)[C@@]1(O)CC[C@@H]2C1=CC(=O)OC1 | > 80 |
| C[C@@H]1C[C@@H](O)[C@]2(O)O[C@@H]3C[C@@]4(C=O)[C@@H](CC[C@@H]5[C@@H]4CC[C@]4(C)[C@@H](C6=CC(=O)OC6)CC[C@]54O)C[C@H]3O[C@@H]2O1 [CALACTIN] | > 80 |
| C[C@@H]1C[C@@]2(N=CCS2)[C@]2(O)O[C@@H]3C[C@@]4(C=O)[C@@H](CC[C@@H]5[C@@H]4CC[C@]4(C)[C@@H](C6=CC(=O)OC6)CC[C@]54O)C[C@H]3O[C@@H]2O1 [USCHARIN] | > 80 |
